Measured values taken from PubChem BioAssay (NCI).
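96-well plates; 48 h exposure; 5 concentrations. Endpoints by linear interpolation between flanking doses. Not reached: highest tested concentration assigned. GI50 is the concentration that inhibits growth by half. At the TGI there is no net growth.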

Columns and labels:
Experiment in all cases: NCI tumour cell line growth inhibition, 48 h
[1] = tested on: RXF 393 renal
[2] = tested on: SF-268 CNS
[3] = tested on: MALME-3M melanoma
[4] = tested on: K-562 leukemia
[5] = tested on: OVCAR-4 ovarian
[6] = tested on: SN12C renal
[7] = tested on: COLO 205 colon
[8] = tested on: UO-31 renal
[9] = tested on: HOP-62 NSCLC
[10] = tested on: LOX IMVI melanoma

| SMILES | GI50 [1] [µM] | TGI [1] [µM] | GI50 [2] [µM] | TGI [2] [µM] | GI50 [3] [µM] | TGI [3] [µM] | GI50 [4] [µM] | TGI [4] [µM] | GI50 [5] [µM] | TGI [5] [µM] | GI50 [6] [µM] | TGI [6] [µM] | GI50 [7] [µM] | TGI [7] [µM] | GI50 [8] [µM] | TGI [8] [µM] | GI50 [9] [µM] | TGI [9] [µM] | GI50 [10] [µM] | TGI [10] [µM] |
| --- | --- | --- | --- | --- | --- | --- | --- | --- | --- | --- | --- | --- | --- | --- | --- | --- | --- | --- | --- | --- |
| COC(=O)c1c2c(c(C)[n+]([O-])c1C)C(=O)C=CC2=O | 1.42 | 2.88 | 2.05 | 5.52 | 1.53 | 2.92 | 3.04 | 36 | 1.2 | 2.47 | 1.62 | 3.1 | 1.64 | 3.35 | 1.69 | 3.39 | 0.744 | 2.27 | 1.44 | 3.04 |
| Fc1ccc(-c2nn(-c3ccccc3)cc2-c2nc3ccccc3o2)cc1 | 31.6 | > 100 | 4.53 | > 100 | 1.71 | 5.99 | 1.25 | > 100 | 9.12 | > 100 | 6.15 | 33.5 | 15.1 | 30.5 | 1.67 | 35.1 | 4.95 | 33.4 | 2.36 | 12.4 |
| COc1cc([C@@H]2c3cc4c(cc3[C@@H](NC(=O)c3cccc([N+](=O)[O-])c3)C3COC(=O)[C@@H]32)OCO4)cc(OC)c1O (stereo not given in full) |  | 9.97 |  | 10.7 |  | 4.77 |  | > 100 |  | > 89.5 |  | 1.49 |  | > 100 |  | 12.2 |  | 0.121 |  | 9.41 |
| O=C(Nc1ccccc1[N+](=O)[O-])c1ccccc1 |  | > 100 |  | > 100 |  | > 100 |  | > 100 |  | > 100 |  | > 100 |  | > 100 |  | > 100 |  | > 100 |  | > 100 |
| ClCc1ccccc1CSc1ncnc2nc[nH]c12 | > 60 | > 60 | > 60 | > 60 | > 60 | > 60 | > 60 | > 60 | > 60 | > 60 | > 60 | > 60 | > 60 | > 60 | > 60 | > 60 | > 60 | > 60 | > 60 | > 60 |
| COc1ccc(CN2CCCC(C(=O)c3ccc(C(F)(F)F)cc3)C2)c(O)c1 (stereo not given) | 16.9 | 71.9 | 42.1 | > 100 | 18.2 | 35.5 | 19.3 | 93.3 | 29.2 | > 100 | 24.4 | 89.3 | 19.3 | 36.7 | 14.4 | 59.6 | 29.1 | > 100 | 18.4 | 35.3 |
| O=C1NC(=O)C2C(=O)NC(=O)C1C2(c1ccccc1)c1ccc(Cl)cc1 (stereo not given) |  | > 100 |  | > 100 |  | > 100 |  | > 100 |  | > 100 |  | > 100 |  | > 100 |  | > 100 |  | > 100 |  | > 100 |
| CN(C)c1ccc(/C=C2\C[N+](C)(C)C/C(=C\c3ccc(N(C)C)cc3)C2=O)cc1 |  | > 77.7 |  | 66.2 |  | 46.4 |  | 31.3 |  | > 100 |  | > 78 |  | 8.36 |  | > 100 |  | > 96.7 |  | 36.4 |
| Cc1c(N2C(=O)/C(=C\c3ccccc3O)N=C2c2ccccc2)c(=O)n(-c2ccccc2)n1C | 53.8 | > 100 | 29.8 | > 100 | 49.1 | > 100 | > 100 | > 100 | > 100 | > 100 | > 100 | > 100 | > 100 | > 100 | > 100 | > 100 | 19.4 | 46.1 | 62.3 | > 100 |
| N#Cc1cnn2ccn(C3OC(COC(=O)c4ccccc4)C(OC(=O)c4ccccc4)C3OC(=O)c3ccccc3)c12 (stereo not given) |  | > 21.5 |  | > 21.5 |  | > 21.5 |  | > 21.5 |  | > 21.5 |  | > 21.5 |  | > 21.5 |  | > 21.5 |  | > 21.5 |  | > 31.6 |
| C[Si](C)(C)c1ccc(CC2(Cc3ccc([Si](C)(C)C)cc3)CCNC2)cc1 |  | 3.14 |  | 4.71 |  | 11.6 |  | 84.6 |  | 4.52 |  | 3.11 |  | 3.19 |  | 5.9 |  | 6 |  | 3.19 |
